Assay results taken from patent publication US5750556A, “2-(aminomethyl)-3,4,7,9-tetrahydro-2H-pyrano-[2,3-E]indol-8-ones and derivatives” (priority 1996, dated 1998).

Experiments:
dopamine D2 receptor = target: T1, dopamine D2 receptor (Rattus norvegicus, UniProt P61169); assay: [3H]-spiperidone binding, limbic brain homogenate (D2 Spiper); conditions: homogenized limbic brain tissue
T1 construct: from tissue; host or cells: limbic brain tissue, homogenate
Description: High affinity for the dopamine D2 receptor was established by the standard experimental test procedure of Fields, et al., Brain Res., 136, […] (1977) and Yamamura et al., ed., Neurotransmitter Receptor Binding, Raven Press, N.Y. (1978) wherein homogenized limbic brain tissue is incubated with [^3 H]-spiperidone at various concentrations of test compound, filtered washed, and shaken with Hydrofluor scintillation cocktail (National Diagnostics) and counted in a Packard 460 CD scintillation counter.

[1] = target: T2, dopamine autoreceptor (D2 Quin.) (Rattus norvegicus, UniProt P61169); assay: [3H]-quinpirole binding, rat striatal homogenate (D2 Quin., dopamine autoreceptor affinity); conditions: homogenized rat striatal brain tissue, read-out: IC50 (nM) D2 Qmin.
T2 construct: homogenized rat striatal brain tissue is incubated; from tissue; host or cells: rat striatum, homogenate
T2 sequence (P61169 whole entry): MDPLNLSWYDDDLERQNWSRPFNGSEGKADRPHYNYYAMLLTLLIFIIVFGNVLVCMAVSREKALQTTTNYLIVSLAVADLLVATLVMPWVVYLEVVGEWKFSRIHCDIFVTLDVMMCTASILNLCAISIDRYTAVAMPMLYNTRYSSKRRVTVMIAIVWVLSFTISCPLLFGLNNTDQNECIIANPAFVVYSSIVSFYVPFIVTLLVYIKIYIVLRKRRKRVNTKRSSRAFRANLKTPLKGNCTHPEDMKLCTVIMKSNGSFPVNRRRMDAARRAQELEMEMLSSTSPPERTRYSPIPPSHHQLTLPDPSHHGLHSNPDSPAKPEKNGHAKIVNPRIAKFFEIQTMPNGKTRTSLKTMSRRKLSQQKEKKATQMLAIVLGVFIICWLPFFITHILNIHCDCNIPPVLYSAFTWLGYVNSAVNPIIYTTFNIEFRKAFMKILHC

T1 sequence (P61169 whole entry): as above

`O=C1Cc2c(ccc3c2OC(CNCc2ccccc2)CC3)N1` (single isomer, unassigned; (+)) [Example 2a, (+)-2-(benzylamino-methyl)-3,4,9-tetrhydro-2H-pyrano[2,3-e]indol-8-one] was tested, and the IC50 (dopamine D2 receptor) was 734 nM.

With `O=C1Cc2c(ccc3c2OC(CNCc2ccccc2)CC3)N1` (single isomer, unassigned; (-)) [Example 2b, (-)-2-(benzylamino-methyl)-3,4,7,9-tetrhydro-2H-pyrano[2,3-e]indol-8-one] the IC50 (dopamine D2 receptor) was 71.5 nM.

Work on `O=C1Cc2c(ccc3c2OC(CNCc2ccccc2)CC3)N1` (stereo not drawn) [Example 1a, 2-(Benzylamino-methyl)-3,4,7,9-tetrahydro-2H-pyrano-[2,3-e]indol-8-one] yielded an IC50 (dopamine D2 receptor) of 142 nM.

With `O=C1Cc2c(ccc3c2OC(CNCc2ccc(F)cc2)CC3)N1` (stereo not drawn) [Example 1b, 2-(4-Fluoro-benzylamino-methyl)-3,4,7,9-tetrahydro-2H-pyrano[2,3-e]indol-8-one] the IC50 (dopamine D2 receptor) was 310 nM.

In the case of `COc1ccc(CNCC2CCc3ccc4c(c3O2)CC(=O)N4)cc1` (stereo not drawn) [Example 1c, 2-(4-Methoxy-benzylamino-methyl)-3,4,7,9-tetrahydro-2H-pyrano[2,3e]indol-8-one], the IC50 (dopamine D2 receptor) was 295 nM.

For `Cc1ccc(CNCC2CCc3ccc4c(c3O2)CC(=O)N4)cc1` (stereo not drawn) [Example 1d, 2-(4-Methyl-benzylamino-methyl)-3,4,7,9-tetrahydro-2H-pyrano[2,3-e]indol8-one], the IC50 (dopamine D2 receptor) was 103 nM.

With `O=C1Cc2c(ccc3c2OC(CNCc2ccc(Cl)cc2)CC3)N1` (stereo not drawn) [Example 1e, 2-(4-Chloro-benzylamino-methyl)-3,4,7,9-tetrahydro-2H-pyrano[2,3-e]indol-8-one] the IC50 [1] was 0.65 nM and the IC50 (dopamine D2 receptor) was 148 nM.

`Cc1ccc(CNCC2CCc3ccc4c(c3O2)CC(=O)N4)c(C)c1` (stereo not drawn) [Example 1f, 2-(2,4-Dimethyl-benzylamino-methyl)-3,4,7,9-tetrahydo-2H-pyrano[2,3-e]indol-8-one] showed an IC50 (dopamine D2 receptor) of 392 nM.
